Measurements reported in patent US12427157B2, “Methods for treatment of diseases involving acidic or hypoxic diseased tissues” (Cybrexa 1, Inc., priority 2018, dated 2025).
pIC50: −log10 of the molar value. Residues, ends and D or L forms follow the SMILES beside them. *: point of attachment. X23 = COC(=O)[C@@H](CS*)OC(=O)N(C)Cc1ccc(-c2[nH]c3cc(F)cc4c3c2CCNC4=O)cc1; X24 = CN(Cc1ccc(-c2[nH]c3cc(F)cc4c3c2CCNC4=O)cc1)C(=O)O[C@H](CS*)c1ccccc1; X25 = COC[C@@H](CS*)OC(=O)N(C)Cc1ccc(-c2[nH]c3cc(F)cc4c3c2CCNC4=O)cc1; X9 = C[C@@H](COC(=O)N(C)Cc1ccc(-c2[nH]c3cc(F)cc4c3c2CCNC4=O)cc1)S*

Biological target: PARP (Homo sapiens, UniProt P09874)
Sequence (P09874 whole entry): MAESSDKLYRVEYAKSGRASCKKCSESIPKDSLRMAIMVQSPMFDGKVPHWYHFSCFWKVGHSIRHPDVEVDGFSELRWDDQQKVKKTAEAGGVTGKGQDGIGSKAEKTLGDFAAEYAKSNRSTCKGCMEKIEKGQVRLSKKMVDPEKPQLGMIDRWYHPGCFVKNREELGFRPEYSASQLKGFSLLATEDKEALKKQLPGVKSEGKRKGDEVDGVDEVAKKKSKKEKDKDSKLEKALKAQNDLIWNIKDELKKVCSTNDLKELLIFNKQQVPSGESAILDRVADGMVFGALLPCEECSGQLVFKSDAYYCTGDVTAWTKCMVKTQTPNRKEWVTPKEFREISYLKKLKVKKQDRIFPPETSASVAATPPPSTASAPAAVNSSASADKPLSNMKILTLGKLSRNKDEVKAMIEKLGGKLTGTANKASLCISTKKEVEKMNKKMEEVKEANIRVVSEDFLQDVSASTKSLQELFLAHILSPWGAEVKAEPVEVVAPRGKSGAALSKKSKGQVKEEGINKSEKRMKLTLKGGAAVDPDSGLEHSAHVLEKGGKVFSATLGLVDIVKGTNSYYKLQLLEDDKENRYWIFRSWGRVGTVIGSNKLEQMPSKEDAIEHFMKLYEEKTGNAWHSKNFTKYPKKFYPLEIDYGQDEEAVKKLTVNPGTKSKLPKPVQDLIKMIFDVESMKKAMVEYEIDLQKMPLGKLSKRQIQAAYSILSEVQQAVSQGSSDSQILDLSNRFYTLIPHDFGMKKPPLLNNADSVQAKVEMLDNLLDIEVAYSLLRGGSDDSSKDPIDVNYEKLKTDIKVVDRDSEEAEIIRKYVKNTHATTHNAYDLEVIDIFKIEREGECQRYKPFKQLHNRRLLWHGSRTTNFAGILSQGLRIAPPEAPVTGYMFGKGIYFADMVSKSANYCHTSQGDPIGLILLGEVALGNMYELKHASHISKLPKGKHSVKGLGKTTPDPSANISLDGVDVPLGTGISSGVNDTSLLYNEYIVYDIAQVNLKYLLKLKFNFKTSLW
Experiment: Enzymatic Assay 2: HT Universal Chemiluminescent PARP Assay of cleaved compounds;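 note: PARP reaction with activated DNA run 1 h at room temperature, product detected via streptavidin-HRP and luminescence endpoint reading on a plate reader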
Settings: read-out: IC50 Enzymatic Assay 2; Examples cleaved per Example A (crude cleavage solution); R^8H starting materials as such
Protocol: An equal volume of 1×PARP cocktail containing activated DNA was added to each well and the reaction was incubated for one hour at room temperature. The wells were washed twice with 1×PBS+0.1% Triton X-100 and twice with PBS. 50 ul/well of diluted streptavidin-HRP was added and the wells were incubated for one hour at room temperature. The wells were washed twice with 1×PBS+0.1% Triton X-100 and washed twice with PBS. The liquid was 5 removed, 100 ul/well 1:1 PeroxyGlow A/PeroxyGlow B was added and the chemiluminescent readings were measured on a BioTek Cytation 5 plate reader using the luminescence fiber endpoint.

SMILES | pIC50
CC[C@H](C)[C@H](NC(=O)[C@@H]1CCCN1C(=O)[C@H](CC(N)=O)NC(=O)[C@H](CCC(N)=O)NC(=O)[C@H](CCC(=O)O)NC(=O)[C@H](C)N)C(=O)N[C@@H](Cc1ccc(O)cc1)C(=O)N[C@@H](Cc1c[nH]c2ccccc12)C(=O)N[C@@H](C)C(=O)N[C@@H](CCCNC(=N)N)C(=O)N[C@@H](Cc1ccc(O)cc1)C(=O)N[C@@H](C)C(=O)N[C@@H](CC(=O)O)C(=O)N[C@@H](Cc1c[nH]c2ccccc12)C(=O)N[C@@H](CC(C)C)C(=O)N[C@@H](Cc1ccccc1)C(=O)N[C@H](C(=O)N[C@H](C(=O)N1CCC[C@H]1C(=O)N[C@@H](CC(C)C)C(=O)N[C@@H](CC(C)C)C(=O)N[C@@H](CC(C)C)C(=O)N[C@@H](CC(C)C)C(=O)N[C@@H](CC(=O)O)C(=O)N[C@@H](CC(C)C)C(=O)N[C@@H](C)C(=O)N[C@@H](CC(C)C)C(=O)N[C@@H](CC(C)C)C(=O)N[C@H](C(=O)N[C@@H](CC(=O)O)C(=O)N[C@@H](C)C(=O)N[C@@H](CC(=O)O)C(=O)N[C@@H](CCC(=O)O)C(=O)N[C@@H](CSS[C@@H](C)COC(=O)N(C)Cc1ccc(-c2[nH]c3cc(F)cc4c3c2CCNC4=O)cc1)C(=O)NCC(=O)O)C(C)C)[C@@H](C)O)[C@@H](C)O [Example 22] (H-AEQNPIYWARYADWLFTTPLLLLDLALLVDADEC(X9)G-OH; N-terminus and C-terminus assumed) | 8.74
CC(C)C[C@H](NC(=O)[C@H](Cc1ccc(O)cc1)NC(=O)[C@H](C)NC(=O)[C@H](CCCNC(=N)N)NC(=O)[C@H](Cc1c[nH]c2ccccc12)NC(=O)[C@@H]1CCCN1C(=O)[C@H](CC(N)=O)NC(=O)[C@H](CCC(N)=O)NC(=O)[C@H](CC(=O)O)NC(=O)[C@H](CC(=O)O)NC(=O)[C@H](C)N)C(=O)N[C@@H](CC(=O)O)C(=O)N[C@@H](CC(C)C)C(=O)N[C@@H](CC(C)C)C(=O)N[C@@H](Cc1ccccc1)C(=O)N1CCC[C@H]1C(=O)N[C@H](C(=O)N[C@@H](CC(=O)O)C(=O)N[C@H](C(=O)N[C@@H](CC(C)C)C(=O)N[C@@H](CC(C)C)C(=O)N[C@@H](CC(C)C)C(=O)N[C@@H](CC(=O)O)C(=O)N[C@@H](CC(C)C)C(=O)N[C@@H](CC(C)C)C(=O)N[C@@H](Cc1c[nH]c2ccccc12)C(=O)N[C@@H](CC(=O)O)C(=O)N[C@@H](C)C(=O)N[C@@H](CC(=O)O)C(=O)N[C@@H](CCC(=O)O)C(=O)N[C@@H](CSS[C@@H](C)COC(=O)N(C)Cc1ccc(-c2[nH]c3cc(F)cc4c3c2CCNC4=O)cc1)C(=O)NCC(=O)O)[C@@H](C)O)[C@@H](C)O [Example 23] | 8.60
CC[C@H](C)[C@H](NC(=O)[C@@H]1CCCN1C(=O)[C@H](CC(N)=O)NC(=O)[C@H](CCC(N)=O)NC(=O)[C@H](CCC(=O)O)NC(=O)[C@H](C)N)C(=O)N[C@@H](Cc1ccc(O)cc1)C(=O)N[C@@H](Cc1c[nH]c2ccccc12)C(=O)N[C@@H](C)C(=O)N[C@@H](CCCNC(=N)N)C(=O)N[C@@H](Cc1ccc(O)cc1)C(=O)N[C@@H](C)C(=O)N[C@@H](CC(=O)O)C(=O)N[C@@H](Cc1c[nH]c2ccccc12)C(=O)N[C@@H](CC(C)C)C(=O)N[C@@H](Cc1ccccc1)C(=O)N[C@H](C(=O)N[C@H](C(=O)N1CCC[C@H]1C(=O)N[C@@H](CC(C)C)C(=O)N[C@@H](CC(C)C)C(=O)N[C@@H](CC(C)C)C(=O)N[C@@H](CC(C)C)C(=O)N[C@@H](CC(=O)O)C(=O)N[C@@H](CC(C)C)C(=O)N[C@@H](C)C(=O)N[C@@H](CC(C)C)C(=O)N[C@@H](CC(C)C)C(=O)N[C@H](C(=O)N[C@@H](CC(=O)O)C(=O)N[C@@H](C)C(=O)N[C@@H](CC(=O)O)C(=O)N[C@@H](CCC(=O)O)C(=O)N[C@@H](CSSC[C@@H](OC(=O)N(C)Cc1ccc(-c2[nH]c3cc(F)cc4c3c2CCNC4=O)cc1)c1ccccc1)C(=O)NCC(=O)O)C(C)C)[C@@H](C)O)[C@@H](C)O [Example 25] (H-AEQNPIYWARYADWLFTTPLLLLDLALLVDADEC(X24)G-OH; N-terminus and C-terminus assumed) | 8.47
CC[C@H](C)[C@H](NC(=O)[C@@H]1CCCN1C(=O)[C@H](CC(N)=O)NC(=O)[C@H](CCC(N)=O)NC(=O)[C@H](CCC(=O)O)NC(=O)[C@H](C)N)C(=O)N[C@@H](Cc1ccc(O)cc1)C(=O)N[C@@H](Cc1c[nH]c2ccccc12)C(=O)N[C@@H](C)C(=O)N[C@@H](CCCNC(=N)N)C(=O)N[C@@H](Cc1ccc(O)cc1)C(=O)N[C@@H](C)C(=O)N[C@@H](CC(=O)O)C(=O)N[C@@H](Cc1c[nH]c2ccccc12)C(=O)N[C@@H](CC(C)C)C(=O)N[C@@H](Cc1ccccc1)C(=O)N[C@H](C(=O)N[C@H](C(=O)N1CCC[C@H]1C(=O)N[C@@H](CC(C)C)C(=O)N[C@@H](CC(C)C)C(=O)N[C@@H](CC(C)C)C(=O)N[C@@H](CC(C)C)C(=O)N[C@@H](CC(=O)O)C(=O)N[C@@H](CC(C)C)C(=O)N[C@@H](C)C(=O)N[C@@H](CC(C)C)C(=O)N[C@@H](CC(C)C)C(=O)N[C@H](C(=O)N[C@@H](CC(=O)O)C(=O)N[C@@H](C)C(=O)N[C@@H](CC(=O)O)C(=O)N[C@@H](CCC(=O)O)C(=O)N[C@@H](CSSC[C@@H](OC(=O)N(C)Cc1ccc(-c2[nH]c3cc(F)cc4c3c2CCNC4=O)cc1)C(=O)OC)C(=O)NCC(=O)O)C(C)C)[C@@H](C)O)[C@@H](C)O [Example 26] (H-AEQNPIYWARYADWLFTTPLLLLDLALLVDADEC(X23)G-OH; N-terminus and C-terminus assumed) | 8.70
CC[C@H](C)[C@H](NC(=O)[C@@H]1CCCN1C(=O)[C@H](CC(N)=O)NC(=O)[C@H](CCC(N)=O)NC(=O)[C@H](CCC(=O)O)NC(=O)[C@H](C)N)C(=O)N[C@@H](Cc1ccc(O)cc1)C(=O)N[C@@H](Cc1c[nH]c2ccccc12)C(=O)N[C@@H](C)C(=O)N[C@@H](CCCNC(=N)N)C(=O)N[C@@H](Cc1ccc(O)cc1)C(=O)N[C@@H](C)C(=O)N[C@@H](CC(=O)O)C(=O)N[C@@H](Cc1c[nH]c2ccccc12)C(=O)N[C@@H](CC(C)C)C(=O)N[C@@H](Cc1ccccc1)C(=O)N[C@H](C(=O)N[C@H](C(=O)N1CCC[C@H]1C(=O)N[C@@H](CC(C)C)C(=O)N[C@@H](CC(C)C)C(=O)N[C@@H](CC(C)C)C(=O)N[C@@H](CC(C)C)C(=O)N[C@@H](CC(=O)O)C(=O)N[C@@H](CC(C)C)C(=O)N[C@@H](C)C(=O)N[C@@H](CC(C)C)C(=O)N[C@@H](CC(C)C)C(=O)N[C@H](C(=O)N[C@@H](CC(=O)O)C(=O)N[C@@H](C)C(=O)N[C@@H](CC(=O)O)C(=O)N[C@@H](CCC(=O)O)C(=O)N[C@@H](CSSC[C@H](COC)OC(=O)N(C)Cc1ccc(-c2[nH]c3cc(F)cc4c3c2CCNC4=O)cc1)C(=O)NCC(=O)O)C(C)C)[C@@H](C)O)[C@@H](C)O [Example 27] (H-AEQNPIYWARYADWLFTTPLLLLDLALLVDADEC(X25)G-OH; N-terminus and C-terminus assumed) | 8.41
